In patent publication US6121319A (priority 1998, dated 2000):

What was measured:
MCP-1 [1] = assay: MCP-1 expression in human aortic endothelial cells (TNF, ELISA); type: cell-based
Source text: The cell culture media was harvested and used to quantitate the amount of MCP-1 using a color-based ELISA assay. […] MCP-1 is a chemoattractant protein that recruits monocytes to an atherosclerotic lesion.

VCAM-1 [2] = assay: VCAM-1 expression in human aortic endothelial cells (TNF-induced, ELISA); type: cell-based; conditions: for VCAM-1 expression as a percentage of VCAM-1 expression induced by TNF alone: HAEC, 2.5, 5, 10 and 100 μM, 16 h, 37 °C, FIG. 1
Method: The cells were incubated for sixteen hours in cell culture media at 37 degrees Celsius in a tissue culture incubator. After sixteen hours, the cells were washed, and incubated with antibodies to VCAM-1. The amount of antibody binding to the cells was determined by a colorometric ELISA assay using a horseradish peroxidase conjugated antibody to the VCAM-1 antibody.

rats = assay: Two-week oral administration to rats (toxicity, clinical chemistry); type: in vivo, rat; conditions: 1000 mg/kg/day
aortic lesions = assay: Aortic lesions in hypercholesterolemic rabbits (sudan-4 staining); type: in vivo, rabbit; conditions: six weeks
Method: (§1) Oral administration of MSE (150 mg/kg/day) for six weeks lowers total plasma, ApO-B containing and HDL cholesterol levels in a New Zealand White rabbit model.
(§2) After six weeks, lipoprotein fractions were separated from whole plasma by […], and analyzed for cholesterol and triglyceride content.
(§3) The rabbits described in Example 8 were sacrificed and aortas obtained. The aortas were stained with sudan-4 and the extent of staining analyzed. FIG. 9 is a graph of the percent aortic surface area covered by lesions in MSE treated and untreated lipid-fed rabbits.

lipid-fed rabbits = assay: Cholesterol and lipoprotein cholesterol in plasma of lipid-fed rabbits, three weeks; type: in vivo, rabbit; conditions: 0.5% wt/wt in high-fat chow, p<0.05, FIG. 5
Source text: Control animals were fed the same chow without drug added. Lipoprotein fractions were separated from whole plasma by […] and analyzed for cholesterol content.

[3] = test system: macrophage accumulation (Ram-11 antigen); assay: Macrophage accumulation in aorta sections of hypercholesterolemic rabbits (Ram-11 immunostaining); type: in vivo, rabbit; conditions: six weeks; for reduction in macrophage accumulation in aorta sections: immunostaining (Ram-11), approx. 150 mg/kg/day (probucol: similar experiment, same dose)
Source text: as §2, §3
(§4) Sections of the aortas were immunostained for VCAM-1 expression or macrophage accumulation using antibodies for VCAM-1 or Ram-11 antigen.

bacteria = assay: Bacterial Ames test
Source text: MSE is not a mutagen in the bacterial Ames test.

rabbits = assay: Effect on lipoproteins in rabbits (summary statement); type: in vivo, rabbit; conditions: for effect on HDL: rabbits (species not restated for probucol)
Source text: Statins reduce LDL and may or may not effect HDL.

ICAM-1 = ICAM-1 expression in human aortic endothelial cells (TNF-induced, ELISA); type: cell-based; conditions: HAEC; 2.5, 5, 10 and 100 μM; 16 h; FIG. 2
Method: The cells were incubated for sixteen hours in cell culture media at 37 degrees Celsius in a tissue culture incubator. After sixteen hours, the cells were washed, and incubated with antibodies to ICAM-1. The amount of antibody binding to the cells was determined by a colorometric ELISA assay using a horseradish peroxidase conjugated antibody to the ICAM-1 antibody.

VCAM-1 [4] = assay: VCAM-1 expression in aorta sections of hypercholesterolemic rabbits (immunostaining); type: in vivo, rabbit; conditions: six weeks; for reduction in VCAM-1 expression in aorta sections: immunostaining, approx. 150 mg/kg/day (probucol: similar experiment, same dose)
Source text: as §2, §3, §4

[5] = test system: hypercholesterolemic monkeys; assay: Serum LDL and cholesterol in hypercholesterolemic cynomolgus monkeys; type: in vivo; conditions: for effect on HDL: monkeys
Method: Cynomolgus monkeys were made hypercholesterolemic prior to AGE-3 dosing by feeding a high fat cholesterol diet. The monkeys were then dosed orally with AGE-3 (100 mg/kg/day) for two weeks. The percent serum LDL cholesterol decreased in a range from 4 to 60 percent in the monkeys over this time period. Administration of the drug was then terminated, and serum cholesterol checked on day 29.

MCP-1 [6] = assay: MCP-1 gene expression in lungs of LPS-challenged mice (Northern blot); type: in vivo, mouse; conditions: subcutaneous time release pellets, 150 mg/kg/day
Method: (§5) MSE administered via subcutaneous implanted pellets (150 mg/kg/day time release pellets) blocks LPS-induced gene expression of VCAM-1 and MCP-1 in lungs in a mice model.
(§6) FIG. 4 is a Northern blot analysis of VCAM-1 and MCP-1 gene expression from RNA isolated from the lungs of LPS-challenged ApoE knockout mice. […] After one week they were challenged intraperitoneally with 1 mg/kg of LPS. After two hours the animals were sacrificed and lungs frozen for RNA isolation. The RNA was size fractionated by denaturing 1.0% agarose gel electrophoresis, transferred to a nylon membrane and hybridized with a mouse JE-specific ^32 P-labelled cDNA probe. The membrane was subsequently stripped and hybridized with a mouse VCAM-1 specific cDNA and then a chicken β-actin specific cDNA probe.

apoE-knock out mice = assay: Lipoproteins in apoE-knock out mice, two weeks oral; type: in vivo, mouse; conditions: for effect on HDL / effect on total cholesterol and LDL: mice
C57 black mice = assay: Lipoproteins in cholesterol-fed C57 black mice, two weeks oral; type: in vivo, mouse
[7] = Drug level in plasma of rabbits fed a high cholesterol diet for three weeks (HPLC); type: in vivo, rabbit; conditions: 0.5% wt/wt in high-fat chow, FIG. 6
Source text: The drugs were extracted from plasma with ether and analyzed by high pressure liquid chromatography.

VCAM-1 [8] = assay: VCAM-1 expression (general statement)
VCAM-1 [9] = assay: VCAM-1 gene expression in lungs of LPS-challenged mice (Northern blot); type: in vivo, mouse; conditions: subcutaneous time release pellets, 150 mg/kg/day
Method: as §5, §6

[10] = Plasma level of MSE over days of treatment (FIG. 10); type: in vivo; conditions: FIG. 10, in micromolar
[11] = test system: New Zealand white rabbits; assay: Cholesterol and lipoproteins in cholesterol-fed New Zealand White rabbits, six weeks; type: in vivo, rabbit
Method: as §1, §2

NF-kB [12] = assay: NF-kB activation in TNF-treated human aortic endothelial cells (gel shift); type: cell-based; conditions: HAEC, 25 micromolar, 1, 2 or 4 h
Method: Human aortic endothelial cells were treated with TNF alone or in combination with 25 micromolar MSE or PDTC for a period of either one hour, two hours or four hours. The cells were washed and the nuclear extracts were prepared to perform gel shift analysis using a VCAM-1 promoter probe.

NF-kB [13] = conditions: diverse signals; cited from earlier work
VCAM-1 [14] = conditions: PCT/US95/05880; cited from earlier work
VCAM-1 [15] = conditions: U.S. Pat. No. 5,380,747; cited from earlier work
[16] = cited from earlier work
[17] = test system: LDL receptor-deficient rabbits; conditions: Carew et al.; cited from earlier work
[18] = listed as monosuccinic acid ester of probucol
[19] = 0.5 wt/wt (approx. 150 mg/kg/day) in diet, FIG. 8
[20] = oral, 150 mg/kg/day, New Zealand White rabbit

CC(C)(Sc1cc(C(C)(C)C)c(O)c(C(C)(C)C)c1)Sc1cc(C(C)(C)C)c(OC(=O)CCC(=O)O)c(C(C)(C)C)c1 [MSE, monosuccinic acid ester of probucol]
MCP-1 expression (MCP-1 [1]; HAEC, MSE 10 μM, probucol 50 μM, TNF, 4 h, FIG. 3): inhibited the expression of MCP-1 to a greater extent than probucol itself | TNF-induced MCP-1 gene expression (MCP-1 [1]; human aortic endothelial cells): selectively inhibits | VCAM-1 expression as a percentage of VCAM-1 expression induced by TNF alone (VCAM-1 [2]): inhibits the expression of VCAM-1 | TNF-induced VCAM-1 gene expression (VCAM-1 [2]; human aortic endothelial cells): selectively inhibits | mortality (rats; oral, two weeks): did not result in any mortality | changes in liver morphology or histopathology (rats; rat, in vivo, po): not accompanied with changes in liver morphology or histopathology | hematocrit values (rats; rat, in vivo, po): no effect | serum LDH elevation (rats; rat, in vivo, po): not statistically different from the untreated group | serum SGOT elevation (rats; rat, in vivo, po): not statistically different from the untreated group | serum SGPT elevation (rats; rat, in vivo, po): not statistically different from the untreated group | serum alkaline phosphatase elevation (rats; rat, in vivo, po): not statistically different from the untreated group | serum electrolyte values (rats; rat, in vivo, po): no effect | atherosclerosis lesion formation (aortic lesions; oral, 150 mg/kg/day): marked inhibition | aortic sudan-4 staining (aortic lesions; approx. 150 mg/kg/day, FIG. 9): much less staining | reduction in lipoprotein fractions (cholesterol) (lipid-fed rabbits): statistically significant reduction in all lipoprotein fractions | reduction in macrophage accumulation in aorta sections [3]: more than 75% | macrophage accumulation ([3]; oral, 150 mg/kg/day): marked inhibition | mutagenicity (bacteria): not a mutagen | effect on HDL (rabbits): reduces HDL only to a small extent | effect on total cholesterol and LDL, rabbits vs mice (rabbits; rabbits compared with mice): significantly more effective at reducing both cholesterol and LDL in rabbits and monkeys than in mice | ICAM-1 expression as a percentage of ICAM-1 expression induced by TNF alone (ICAM-1): only a slight effect on ICAM expression which was not very concentration dependent | reduction in VCAM-1 expression in aorta sections (VCAM-1 [4]): more than 75% | VCAM-1 expression in aorta (VCAM-1 [4]; oral, 150 mg/kg/day): marked inhibition | serum cholesterol after termination of dosing ([5]; day 29, after 100 mg/kg/day oral for two weeks): returned to the pretreatment level | lowering of LDL, reversibility ([5]; during and after administration, FIG. 12): reversible lowering of LDL | effect on HDL [5]: without effecting HDL | effect on total cholesterol and LDL, monkeys vs mice ([5]; monkeys compared with mice): significantly more effective at reducing both cholesterol and LDL in rabbits and monkeys than in mice | effect on HDL [5, 18]: does not affect HDL | LDL cholesterol ([5]; oral, two weeks): lowers | total plasma cholesterol ([5]; oral, two weeks): lowers | LPS-induced gene expression of MCP-1 in lungs (MCP-1 [6]): blocks | effect on HDL (apoE-knock out mice): without affecting HDL | effect on total cholesterol and LDL (apoE-knock out mice): a minimal if any, effect | effect on HDL (apoE-knock out mice; [18]): does not affect HDL | apoB-containing lipoproteins (apoE-knock out mice; oral, two weeks, apoE-knock out mice): selectively lowers | apoB-containing lipoproteins (C57 black mice): selectively lowers | effect on HDL (C57 black mice): without affecting HDL | drug level in plasma, MSE vs probucol [7]: similar | effect on VCAM-1 expression (VCAM-1 [8]): block the induced expression of the endothelial cell surface adhesion molecule VCAM-1 | VCAM-1 expression, all species tested (VCAM-1 [8]; all species tested): inhibits the expression of VCAM-1 in all species tested | LPS-induced gene expression of VCAM-1 in lungs (VCAM-1 [9]): blocks | plasma level of MSE as a function of days [10]: remained fairly constant | cholesterol in IDL [11, 19]: lowered more by treatment with AGE-3 than with probucol | cholesterol in VLDL [11, 19]: lowered more by treatment with AGE-3 than with probucol | total cholesterol [11, 19]: lowered more by treatment with AGE-3 than with probucol | ApO-B containing cholesterol levels [11, 20]: lowers | HDL cholesterol levels [11, 20]: lowers | total plasma cholesterol [11, 20]: lowers | effect on NF-kB activation (NF-kB [12]): does not affect NF-kB activation

S=C(S)N1CCCC1 [PDTC, pyrrolidine dithiocarbamate]
activation of NF-kB in vascular endothelial cells (NF-kB [13]): specifically inhibited | induction of VCAM-1 by polyunsaturated fatty acids and their hydroperoxides (VCAM-1 [14]): supressed | expression of VCAM-1 in vascular endothelial cells (VCAM-1 [15]): can be inhibited | effect on NF-kB activation (NF-kB [12]): does inhibit the activation of NF-kB

CC(C)(Sc1cc(C(C)(C)C)c(O)c(C(C)(C)C)c1)Sc1cc(C(C)(C)C)c(O)c(C(C)(C)C)c1 [probucol, 4,4'-(isopropylidenedithio) bis(2,6-di-tert-butylphenol), reference compound]
VCAM-1 expression as a percentage of VCAM-1 expression induced by TNF alone (VCAM-1 [2]): does not have an appreciable effect on VCAM | reduction in lipoprotein fractions (cholesterol) (lipid-fed rabbits): only HDL cholesterol | reduction in macrophage accumulation in aorta sections [3]: less than 25% | solubility in water [16]: almost insoluble in water | effect on HDL (rabbits): reduces HDL significantly | effect on LDL (rabbits; species not restated for probucol): reduces LDL only to a small extent | ICAM-1 expression as a percentage of ICAM-1 expression induced by TNF alone (ICAM-1): no effect on ICAM expression | reduction in VCAM-1 expression in aorta sections (VCAM-1 [4]): less than 25% | effect on total cholesterol and LDL (apoE-knock out mice): a minimal if any, effect | effect on VCAM-1 expression (VCAM-1 [8]): does not significantly affect VCAM-1 expression | progression of atherosclerosis [17]: slow the progression of atherosclerosis
